Data published in US8361802B2, “Fluorescent ozone sensor” (University of Pittsburgh—Of the Commonwealth System of …, priority 2009, dated 2013).

What was measured:
[1] = Ozone detection in indoor air on adsorbent paper strips
Protocol: One embodiment of the present invention can be a badge that contains compound 4 that may be worn by patients so their total ozone exposure can be continuously measured through the day. A proof-of-principle experiment was conducted with compound 4 and compound 1 as a comparative. A solution of compound 4 (500 nmol) in dimethylsulfoxide (DMSO) was absorbed on a piece of adsorbent paper and allowed to dry. The paper strips were stored in an office room that had two photocopiers and two laser printers. After eight hours, the paper strips were removed and placed in a vial that contained oH 7 buffer to elute the dyes. […] The deviation in these values is presumably because of photobleaching and the lack of specificity of compound 1 towards various ROS, including singlet oxygen.
Ozone detection in indoor air. FIG. 10 are photographic illustrations of results of Ozone detection tests in indoor air using the present invention. The top photograph is a Kimwipe® before placing into photocopy room for 8 hours. The bottom photographs are a Kimwipe® in buffer for absorbance and fluorescence measurement, wherein the left photograph is an indigo carmine taken in room light), and the right photograph is compound 4 taken under long-range UV lamp. One adsorbent paper (Kimwipe®) was cut into two 11×9 cm pieces. Solution A (50 μL, 500 nmol of compound 4) was added to one portion of the Kimwipe® and allowed to dry (FIG. 10, top right). Solution B (50 μL, 500 nmol of indigo carmine) was added to the other portion of the Kimwipe® and allowed to dry (FIG. 10, top left). After overnight drying in a laboratory drawer, the paper strips were moved to a poorly ventilated photocopy room (2 photocopiers and 2 laser printers) for 8 hours. The controls remained in the laboratory drawer. After 8 hours, the samples were placed into a scintillation vial, and the dyes were eluted with pH 7 buffer (6.0 mL) (˜5 min) before fluorescence and absorbance measurement. […] FIGS. 3C-D error bars were determined from the calculated mean and standard deviation (Prism 5.0a, GraphPad Software, Inc.).

[2] = Indigo carmine with various ROS; conditions: 12.5 μM indigo carmine
Protocol: Indigo carmine with various ROS. The ROS experiments described above were repeated using indigo carmine (Solution B, [Indigo Carmine]final=12.5 μM in all cases) in triplicate. […] FIG. 6A is the Absorbance spectrum of indigo carmine. FIG. 6B is the ROS with indigo carmine. Error bars were determined from the calculated mean and standard deviation (Prism 5.0a, GraphPad Software, Inc.).

[3] = Cytotoxicity against HeLa cells (MTS assay); type: cell-based; conditions: human, 2000 cells/well, 10 nM to 200 μM, read-out: 1050 (cytotoxicity)
Protocol: FIG. 4J is the cytotoxicity of compound 8 against HeLa cells seeds at a density of 2000 cells/well is a 96-well plate;
FIG. 4I is the ROS with compound 8. The experiment was performed in duplicate. Error bars were determined from the calculated mean and standard deviation (Prism 5.0a, GraphPad Software, Inc.). FIG. 4J is the cytotoxicity of compound 8 against HeLa cells seeds at a density of 2000 cells/well is a 96-well plate. Concentrations of compound 8 ranged from 10 nM to 200 μM. The assay was performed for 3 days, and the relative cell density was determined by an MTS assay (Promega CellTiter 96® AQueous Non-Radioactive Cell Proliferation Assay).

[4] = test system: Human bronchial epithelial cells (BEAS-2B); test: Live-cell imaging of human bronchial epithelial cells; type: cell-based
Protocol: Human bronchial epithelial cells (BEAS-2B) (American Type Culture Collectin) were grown in LHC-9 medium (Invitrogen) on glass-bottomed Petri dishes (MatTek) precoated with 0.01 mg ml^−1 of human fibronectin (Invitrogen), 0.029 mg ml^−1 Vitrogen 100 (Cohesion) and 0.01 mg ml^−1 bovine serum albumin (Invitrogen) in LHC-9 medium. Immediately prior to imaging, cells were rinsed with Hank's balanced salt solution, which contained calcium and magnesium, and placed inside a temperature-controlled, airtight environmental chamber and maintained at 37° C. and 5% CO2. Images were obtained using a Nikon TE2000E-PFS (Perfect focus system) microscope equipped with a […] oil-immersion objective (Nikon, CFI PlanFluor, NA 1.3) and a fluorescien isothiocyanate longpass filter set (Chroma), a Q-Imaging SRV CCD camera (Q-imaging) and MetaMorph software (Molecular Devices). The motorized XYZ stage used was made by ASA (Eugege). Baseline images were collected before the addition of compound 8 and time-lapsed images obtained at 30 second intervals after the addition of compound 8 (250 nM). Once stage baseline had been achieved, multiple washes were carried out and the media replaced. The cells were then exposed to ozone (˜2.1 ppm) and monitored every 30 seconds for 15 minutes. Ozone was generated from medical grade oxygen (Valley Gas) via a model V1-0 ultraviolet ozonator (OREC) and analyzed with a Dasibi (Glendale) direct-reading instrument. Ozone concentrations were maintained by adjusting both the intensity of the ultraviolet light and the flow rate of oxygen. For each experiment, images were collected from six stages, with a minimum of five cells per position (a minimum of 30 cells per […]).
In another embodiment of the invention, human bronchial epitelial cells were incubated with compound 4 to determine ozone's role in cell biology. […] Based on studies why compound 4 and structurally related compounds are not fluorescent, it is believed that the hydroxymethyl group 4 may have been oxidized to give a more electron-withdrawing group, possible a carboxyl or aldehyde group, and so emit a strong fluorescence signal. To circumvent such an oxidation event, compound 8 was prepared specific for ozone. […] Once a steady baseline signal had been established and maintained for five minutes, ozone gas was generated within the airtight environmental chamber that housed the cell-culture dishes, and fluorescent signals were monitored using live-cell microscopy for approximately 15 minutes.
FIGS. 16A-H are photographs of live-cell imaging of human bronchial epithelial cells in the presence of ozone using compound 8. The left-hand panels (FIGS. A-E) are pseudocolour images that indicate the changes in emission intensity over time, and the right-hand panels show differential interference contrast images of the bronchial epithelial cells. FIG. 16A is before the addition of compound 8 (0 seconds). FIG. 16B illustrates the cell at 107 seconds that is a steady state intensity reached with compound 8 at 250 nM. FIG. 16C illustrates the cell at 326 seconds when ozone flow is started. FIG. 16D illustrates the cell at 536 seconds with the emission intensity increasing. FIG. 16E illustrates the cell at 675 seconds when emission maximum is reached. FIG. 16F illustrates the cell at 820 seconds when the cell starts to die. FIG. 16G illustrates the cell at 969 seconds where the cell emission continues to fall. FIG. 16H illustrates the cell at 1148 seconds when the ozone flow is stopped.

[5] = Fluorescence spectroscopy of the compounds; type: physicochemical
Protocol: Fluorescence spectroscopy. Fluorescence spectra were recorded in a 1×1-cm disposable cuvette (VWR; catalog number 58017-880) on a Jobin Yvon FluoroMax-3 spectrometer under the control of a Windows-based PC running FluorEssence software. The samples were excited at 497 nm and the emission intensities were collected at 523 nm. All spectra were corrected for emission intensity using the manufacturer supplied photomultiplier curves.
FIGS. 4A-H illustrate absorbance and fluorescence emission of compounds 4, 7, 8, and S1, wherein fluorescence and emission spectra were measured in 0.1% DMSO in pH 7 buffer. FIG. 4A is absorbance spectrum of compound 4. FIG. 4B is Emission spectrum of compound 4. FIG. 4C is Absorbance spectrum of compound 7. FIG. 4D is Emission spectrum of compound 7. FIG. 4E is Absorbance spectrum of compound 8. FIG. 4F is Emission spectrum of compound 8. FIG. 4G is Absorbance spectrum of compound S1. FIG. 4H is Emission spectrum of compound S1.

In the case of `O=C1/C(=C2\Nc3ccc(S(=O)(=O)[O-])cc3C2=O)Nc2ccc(S(=O)(=O)[O-])cc21.[Na+].[Na+]` [compound 1, indigo carmine], the “decrease in absorbance at 610 nm” value ([1]; 500 nmol on adsorbent paper, photocopy room, eight hours) is reported as 77%, the “consumption of compound 1” value ([1]; correlated from decrease in absorbance at 610 nm) is reported as 387 nmol and the “decrease in absorbance at 610 nm with nearly all ROS” value [2] is reported as 11-70%.

For `C=CCCOc1cc2oc3cc(=O)c(Cl)cc-3c(-c3ccccc3C)c2cc1Cl` [compound 8], the IC50 at 3 days [3] was 43 µM, the “fluorescent emissions inside the cells after ozone generation” value ([4]; 250 nM, ozone ~2.1 ppm, about 15 minutes) was “time-dependent increase in fluorescent emissions occurred inside the cells” and the “time at which emission maximum is reached” value ([4]; 250 nM, ozone flow started at 326 seconds) was 675 s. The “fluorescence inside the cells in the absence of external ozone” value ([4]; human bronchial epithelial cells, no external ozone) was “remained weakly fluorescent within the cells” and the “fluorescence of the probe itself” value [5] was “nearly non-fluorescent”.
